Reference: publication PMC8703450, “New Heterocyclic Combretastatin A-4 Analogs: Synthesis and Biological Activity of Styryl-2(3H)-benzothiazolones” (Pharmaceuticals, 2021)

Columns and labels:
MDA-MB-231 cells = experiment: MTT cytotoxicity assay, MDA-MB-231; type: cell-based, human
Description: (§1) All tested compounds were dissolved in DMSO at 25 mM initial concentration and diluted with medium to obtain the working concentrations (0.01 nM–250 µM). Serial drug dilutions were prepared in medium immediately before each experiment. The DMSO working concentration in the medium was […]. For the MTT assay, cells were seeded into 96-well microtitre plates at a density of 1 × 10^4 in 100 µL complete medium per well. They were further incubated for 24 h, followed by treatment with CA-4 analogs up to 72 h. Cell viability was determined using the MTT assay. Ten µL of MTT solution (5 mg/mL) was added to each well and further incubated for 3 h at 37 °C. To dissolve the formazan product, 100 µL/well of 99.5% isopropanol was added. Cell viability was determined by measuring absorbance at 550/630 nm using a DTX880 plate reader (Beckman Coulter, USA). Results, expressed as concentrations that inhibit 20% (IC20), 50% (IC50), and 80% (IC80) of cell growth, were calculated using GraphPad Prism 8.0.1.
(§2) Table S 3.1. Description of eukaryotic cell lines used for MTT assay. […]
(§3) Kindly provided 3.1 g/L Glucose,
(§4) mammary by Prof. Iana DMEM/F12 with
(§5) Breast MDA- gland/breast; derived Tsoneva 10% FBS, 100 U/mL
(§6) MB-231 h from metastatic site: (IBPhBME – penicillin, 100 U/mL
(§7) pleural effusion; BAS) streptomycin (Lonza). […]

MCF-7 cells = experiment: MTT cytotoxicity assay, MCF-7; type: cell-based, human
Description: as §1, §2, §3, §4, §5, §6, §7

EA.hy926 cells [1] = experiment: Clonogenic survival assay; type: cell-based, human; conditions: 72 h treatment + 6 days recovery
Description: EA.hy926 cells were seeded at 300 cells/well on a 6-well plate and incubated for 24 h. The cells were treated with different concentrations of test compounds for 72 h. After six additional days of growth in a fresh medium to form visible colonies, cells were washed with phosphate-buffered saline (PBS, pH 7.4) and stained with crystal violet (0.5%, w/v) in 6% glutaraldehyde. After 30 min of incubation, the plates were washed with tap water, dried, photographed, and analyzed using ImageJ [79]. Raw data were normalized to the corresponding DMSO control for each independent experiment. After normalization, statistically significant differences for colony-forming efficiency (CFE) values versus […] were calculated.

EA.hy926 cells [2] = experiment: In vitro cell migration (wound-healing) assay; type: cell-based, human; conditions: 24 h
Description: A total of 3 × 10^5 EA.hy926 cells were seeded in a 12-well plate and grown close to the confluence. The cell monolayer was gently scraped with a P200 pipette tip, creating a wound area around 1-mm wide. Cells were washed twice with fresh medium and treated with test compounds diluted in growth media to the corresponding sub-toxic concentrations. Images were acquired at 0 and 24 h following treatment. After incubation for 24 h, the scratch wound width was measured and recorded, and then compared with the initial scratch wound width at 0 h. Using the ImageJ image processing program (ImageJ150-WIN-Java8), the size of the denuded area in pixels was determined at each time point from the digital images.

α,β-tubulin = experiment: In vitro quantification of polymeric vs. soluble tubulin fractions in EA.hy926 cells; type: cell-based, human; conditions: for soluble vs. polymerized tubulin ratio: EA.hy926, 1 µM, 6 h, DMSO control 2.33 ± 0.14
Description: To assess the early effects on the microtubule cytoskeleton in vitro, EA.hy926 cells were cultured for 24 h in 6-cm dishes (3 × 10^5 cells). They were exposed to […] (control), 1 μM CA-4, paclitaxel, or increasing concentrations of 26Z (50, 100, 250, 2500, 10,000 nM) for 6 h. Cells were washed with PBS and lysed directly in the dishes with hypotonic lysis buffer (20 mM Tris-HCl, 1 mM MgCl2, 2 mM EGTA, 0.5% Triton X-100, glycerol 10%, pH 6.8), supplemented with protease inhibitors (2 μg/mL leupeptin, 2 μg/mL pepstatin, 0.4 mM Na vanadate, 0.5 mM PMSF, 1 mM DTT), for 3 min at 30 °C. The soluble fraction was immediately collected, mixed with 5× sample buffer, and boiled at 95 °C for 5 min. The polymerized fraction was collected directly from the culture dish following 10 min of incubation at room temperature with 1× sample buffer.
For the concentration-dependent assay, the cells were harvested by scraping and centrifuged at 1000 g for 5 min, and then lysed with the hypotonic cell lysis buffer for 10 min at room temperature. Tubulin fractions were obtained by centrifugation at 12,000 × g for 10 min.
Equal volumes of the samples were subjected to 10% SDS-PAGE followed by western blotting. Detection of β-tubulin content was accomplished with an anti-β-tubulin mouse monoclonal antibody (sc-101527, Santa Cruz Biotechnology).

caspase 3, 8 and 9 = experiment: Western blot analysis of caspase activation; type: cell-based, human; conditions: EA.hy926, 24 h
Description: A total of 7 × 10^5 cells was seeded in 100-mm dishes. On the next day, cells were treated with the corresponding concentrations of CA-4 and 26Z. After 24 h, treated cells were collected and lysed with lysis buffer (50 mM HEPES, pH 7.7, 250 mM KCl, 10% glycerol, 0.1% Nonidet P-40) containing protease inhibitors (0.4 mM sodium vanadate, 0.5 mM PMSF, 1 mM DTT, […]) by incubation on ice for 30 min and overnight at −20 °C [80]. The concentration of obtained total cell protein lysates was determined by the method of Bradford. Samples were separated on 12% polyacrylamide gels and transferred to nitrocellulose or PVDF membranes. Immunoblotting was performed by blocking in 3.5% non-fat dried milk in PBS, with subsequent incubation for 1 h with primary antibodies for caspase 3 (sc-56053, Santa Cruz Biotechnology), caspase 8 (sc-81656, Santa Cruz Biotechnology), caspase 9 (sc-8355, Santa Cruz Biotechnology), and PARP-1 (sc-8007, Santa Cruz Biotechnology), diluted in PBS containing 0.05% Tween-20. This was followed by incubation with a peroxidase-conjugated secondary antibody m-Igk BP-HRP (sc-516102, Santa Cruz Biotechnology) or a donkey anti-rabbit IgG-HRP (sc-2313, Santa Cruz Biotechnology) for 1 h, and detection of the chemiluminescent signal was accomplished with ECL Select^TM Western Blotting Detection Reagent (Amersham) on X-ray film. β–actin was used as a loading control and mouse monoclonal antibody was used following the manufacturer’s instruction (sc-47778, Santa Cruz Biotechnology).

[3] = tested on: rhodamine-labeled α,β-tubulin; experiment: Ex vivo rhodamine-tubulin polymerization (fluorescence microscopy); conditions: 20 μM, 37 °C, 45 min
Description: TAMRA-Tubulin (TL590M, Cytoskeleton) diluted in GTB buffer (PEM, 10% glycerol, 1 mM GTP) was mixed with unlabeled α,β-tubulin (T240, Cytoskeleton) at a ratio of 1:3 (v/v) to a concentration of 4.0 mg/mL. […] Samples were then centrifuged for 20 min at 30,000× g. The pellets were diluted in 6 µL PEM buffer, containing 1 mM GTP and 0.5% glutaraldehyde, mixed with anti-fade mounting media (P36934, Invitrogen, Eugene, USA), and examined under a confocal LSM 980 Airyscan microscope (Carl Zeiss AG, Oberkochen, Germany).

Row | SMILES | Cytostatic activity (% viable cells) (MDA-MB-231 cells; MDA-MB-231 cells, 72 h, MTT) [%] | Cytostatic activity (% viable cells) (MCF-7 cells; MCF-7 cells, 72 h, MTT, in the concentration range studied) [%] | inhibition at 0.001 µM (EA.hy926 cells [1]; Homo sapiens, EA.hy 926, EA.hy926, 1 nM, read-out: inhibition of endothelial cell colony formation) [%] | remaining mean wound opened area (EA.hy926 cells [2]; EA.hy926, 1 nM) [%] | soluble vs. polymerized tubulin ratio (α,β-tubulin) | active forms of effector caspase 3 (caspase 3, 8 and 9; CA-4 IC50 and 26Z IC20) | fluorescent microtubule fiber formation [3] | IC50 (MDA-MB-231 cells; Homo sapiens, MDA-MB-231, 72 h) [nM] | IC50 (MCF-7 cells; Homo sapiens, MCF7, 72 h) [nM] | decrease in colony number (EA.hy926 cells [1]; EA.hy926, 250 nM) [%] | reduction in colony formation (EA.hy926 cells [1]; EA.hy926, 2.5, 10 and 25 µM) | remaining mean wound opened area (EA.hy926 cells [2]; EA.hy926, 50 nM) [%] | concentration above which the depolymerizing effect is clearly visible (α,β-tubulin; EA.hy926, 6 h, 0.01–10 μM) | activation of caspases 8 and 9 (caspase 3, 8 and 9) | active forms of effector caspase 3 (caspase 3, 8 and 9; 26Z at IC50 and IC80)
1 | COc1ccc(/C=C\c2cc(OC)c(OC)c(OC)c2)cc1O [CA-4, Combretastatin A-4] | 55 | 40 | 80 | 24.4 | 3.3 ± 0.61 | to a lesser extent | blocked the process of fiber formation | – | – | – | – | – | – | – | –
2 | COc1cc(/C=C\c2ccc3c(c2)sc(=O)n3C)cc(OC)c1OC [Compound 26Z, (Z)-3-methyl-6-(3,4,5-trimethoxystyryl)-2(3H)-benzothiazolone] | – | – | – | – | 2.74 ± 0.43 | to a lesser extent | blocked the process of fiber formation | 1350 ± 420 | 2420 ± 480 | 90 | about 100% | 49 | higher than 0.05 μM | activated | detected
